Reference: publication PMC12775802, “Dual targeting of AMRC12 and Malassezia globosa disrupts MYC liquid condensates-driven nuclear pore complex biogenesis in neuroblastoma” (Theranostics, 2026)

Molecular target: ARMC12 (Homo sapiens, UniProt Q5T9G4)
Settings: recombinant wild-type protein; 20 uM (Figure 4F legend; b48 prints 20 mM); 4 °C, 2 h; compound covalently conjugated to beads; site at R320

ARMC12, sequence (Q5T9G4 1-367 isoform Q5T9G4-2): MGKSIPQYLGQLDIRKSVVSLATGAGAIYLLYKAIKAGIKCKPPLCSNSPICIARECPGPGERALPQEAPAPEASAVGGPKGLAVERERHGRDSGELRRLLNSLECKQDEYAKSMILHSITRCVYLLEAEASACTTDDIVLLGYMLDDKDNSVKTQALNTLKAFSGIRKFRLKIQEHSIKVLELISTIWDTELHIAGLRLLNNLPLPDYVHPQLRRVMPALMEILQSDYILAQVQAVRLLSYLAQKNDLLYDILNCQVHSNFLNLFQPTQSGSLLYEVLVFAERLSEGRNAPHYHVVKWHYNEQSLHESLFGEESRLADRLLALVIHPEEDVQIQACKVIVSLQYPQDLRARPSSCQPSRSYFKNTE

With `Clc1ccc(C(Cn2ccnc2)OCc2ccsc2Cl)c(Cl)c1` (stereo not shown) [TCZ, tioconazole] the “affinity purification on compound-conjugated NHS beads, western blot” value was “TCZ directly interacted with recombinant wild-type ARMC12 protein rather than its mutant”.
